# Results reported in patent publication US20260216055A1, “PLANT-MINERAL COMPOSITION FOR PH-DEPENDENT REGULATION OF TYPE 3 AQUAPORINS BASED ON ALOE BARBADENSIS” (SKYLAB AG, priority 2022, published 2026).
# Tests used:
# [1] = aloin in the extract composition; cited from earlier work
# Type 3 aquaporins (AQP3) = test: Amount of Type 3 aquaporins in skin keratinocytes (HaCaT, sandwich ELISA); type: cell-based; details: Table 7 experiment, 24 hours, Aloe extract 0.01%, trimethylglycine 1%, combination 0.01% + 1% equivalent to active ingredients, Hydagen Aquaporin 1% for the raw material
# From the text: At the second stage, the definition of the amount of Type 3 aquaporins in keratinocytes after cultivation under the standard conditions, using the maximum non-toxic concentration of the component from the previous text. To determine the amount of AQP3, a commercially available test with the use of sandwich-type enzyme-linked immunoassay was used. Cells of HaCaT line with the density of 10^5 cells per well were introduced to the 96-well plate. On the next day, the cell medium was removed and replaced with DMEM+5% FBS 50 μL fresh cell medium to maintain cell growth. Next, 50 μL of samples of the composition under the invention was added, and cultivation was performed for 24 hours. In all the tests, 0.20% sodium chloride was added to the cell medium to regulate osmotic balance and to create physiological conditions to cultivate skin cells. The cultivating environment conditions were as follows: humidified atmosphere with 5% CO2 at 37° C. After incubation, cell supernatant was collected, and the amount of Type 3 aquaporins in skin keratinocytes was determined with ELISA method. […] Only after binding the 3 components of the reagent with AQP3 a stable color could be achieved, which was fixed with sulphuric acid and spectropotometrically detected at 450±10 nm wave length. […]
# HaCaT cells = test: Cytotoxicity estimation of the components on skin keratinocytes (MTT); type: cell-based; details: 24 hours
# From the text: The study method is based on the definition of the amount of Type 3 aquaporins in epidermal keratinocytes after adding the components of the composition into HaCaT cell culture medium. At the first stage, cytotoxicity of the components is estimated depending on the concentration of components in the composition, be determining the number of survived cells according to MTT concentration with a color dilution method. Cells of HaCaT line were used in the amount of 10 000 cells per well in a 96-well plate. The testing facilities were as follows: humidified atmosphere with 5% CO2 at 37° C. Incubation time equaled 24 hours. For the negative control, purified water without any components of the composition was used. The number of survived cells was registered with MTT at 570 nm. The number of biological replicates was 3.
# skin = details: 2% in body cleansers, 12 hours after the contact with the product; cited from earlier work
smiles,measurement,setting,value
O=C1c2c(O)cccc2C([C@@H]2O[C@H](CO)[C@@H](O)[C@H](O)[C@H]2O)c2cc(CO)cc(O)c21 (stereo partly drawn) [Aloin],UV radiation neutralized when applied on skin surface,[1],up to 30%
"C[N+](C)(C)CC(=O)[O-] [Trimethylglycine, trimethylglycine]","Increase of AQP3 amount in relation to the negative control, %",Type 3 aquaporins (AQP3),+17.92%
same,Amount of AQP3,Type 3 aquaporins (AQP3); negative control 5.58 ± 0.24,6.58 ± 1.08 ng/mL
same,"Vitality of cells, % when adding the components of the composition into the cultural medium",HaCaT cells; 0.03% (weight %) in medium,98.8 ± 3.47%
same,"Vitality of cells, % when adding the components of the composition into the cultural medium",HaCaT cells; 0.10% (weight %) in medium,99.9 ± 1.47%
same,"Vitality of cells, % when adding the components of the composition into the cultural medium",HaCaT cells; 0.25% (weight %) in medium,95.4 ± 2.94%
same,"Vitality of cells, % when adding the components of the composition into the cultural medium",HaCaT cells; 1.00% (weight %) in medium,93.5 ± 1.66%
same,"Vitality of cells, % when adding the components of the composition into the cultural medium",HaCaT cells; 10.00% (weight %) in medium,90.3 ± 6.82%
CCCCCCCCCCCCOS(=O)(=O)[O-].[Na+] [sodium lauryl sulfate],Transepidermal water loss,skin,68.9 g/m^2/h
